Assay results from ChEMBL document CHEMBL5537170, “Design, Synthesis, and Anti-Osteoporotic Characterization of Arginine N-Glycosylated Teriparatide Analogs via the Silver-catalyzed Solid-Phase Glycosylation Strategy” (J Med Chem, 2024).
The source made the active and inactive calls. The calls are words filed in the database; no cut-off is given here. *1 amine or outer side, *2 acyl side, *3 side chain or, on linkers, in order; H or OH if unused. Where a SMILES comes first, the peptide text is derived from it. [ ]: non-standard residue; d: D form. X4 = N=C(NCCC[C@H](N[*:1])C(=O)[*:2])N[C@@H]1O[C@H](CO)[C@H](O)[C@H](O)[C@H]1O; X6 = C[C@@H]1O[C@@H](NC(=N)NCCC[C@H](N[*:1])C(=O)[*:2])[C@H](O)[C@H](O)[C@H]1O

Experiments:
[1] = Induction of osteoblast differentiation in C57BL/6 mouse Pre-Osteoblast cells assessed as fold increase in ephrinB2 protein expression at 50 nM measured after 72 hrs by Western blot analysis relative to control; format: functional
[2] = Stability in human serum assessed as compound degradation at 1 mg/ml measured after 12 hrs by HPLC analysis; format: ADME, cell-free; settings: read-out: Drug degradation
[3] = Cytotoxicity against C57BL/6 mouse Pre-Osteoblast cells assessed as cell death upto 5 uM incubated for 4 days by CCK-8 assay; format: toxicity, cell-based; settings: 96 h, time 4 day
[4] = Induction of osteoblast differentiation in C57BL/6 mouse Pre-Osteoblast cells assessed as fold increase in ephrinB2 protein expression at 100 nM measured after 72 hrs by Western blot analysis relative to control; format: functional
[5] = Induction of osteoblast differentiation in C57BL/6 mouse Pre-Osteoblast cells assessed as fold increase in ephrinB2 protein expression at 200 nM measured after 72 hrs by Western blot analysis relative to control; format: functional
Pre-Osteoblast [6] = experiment: Induction of osteoblast differentiation in C57BL/6 mouse Pre-Osteoblast cells assessed as increase in bone mineralization by measuring increase in area of calcium nodules measured after 14 days by Alizarin Red S staining based analysis; format: functional, cell-based; settings: time 14.0 day
Mus musculus [7] = experiment: Anti-osteoporosis activity in ovariectomized C57BL/6J mouse model assessed as increase in bone volume percent in femur at 20 microg/kg, sc administered 3 times a week for 8 weeks by micro-CT analysis; format: functional, organism-based; settings: dose 20.0 µg/kg
Pre-Osteoblast [8] = experiment: Induction of osteoblast differentiation in C57BL/6 mouse Pre-Osteoblast cells assessed as upregulation of OCN gene expression measured on day 4 and 7 by qPCR analysis; format: functional, cell-based; settings: time 4-7 day
Pre-Osteoblast [9] = experiment: Induction of osteoblast differentiation in C57BL/6 mouse Pre-Osteoblast cells assessed as upregulation of Runx2 gene expression measured on day 4 and 7 by qPCR analysis; format: functional, cell-based; settings: time 4-7 day
Pre-Osteoblast [10] = experiment: Induction of osteoblast differentiation in C57BL/6 mouse Pre-Osteoblast cells assessed as upregulation of ALP gene expression measured on day 4 and 7 by qPCR analysis; format: functional, cell-based; settings: time 4-7 day
Mus musculus [11] = experiment: Anti-osteoporosis activity in ovariectomized C57BL/6J mouse model assessed as increase in trabecular number in femur at 20 microg/kg, sc administered 3 times a week for 8 weeks by micro-CT analysis; format: functional, organism-based; settings: dose 20.0 µg/kg
Pre-Osteoblast [12] = experiment: Induction of osteoblast differentiation in C57BL/6 mouse Pre-Osteoblast cells assessed as increase in bone mineralization by measuring increase in red calcium nodules measured after 14 days by Alizarin Red S staining based analysis; format: functional, cell-based; settings: time 14.0 day
Pre-Osteoblast [13] = experiment: Induction of osteoblast differentiation in C57BL/6 mouse Pre-Osteoblast cells assessed as increase in ALP expression by measuring increase in ALP-positive cells with purple color at 50 nM measured after 2 days by ALP staining based analysis; format: functional, cell-based; settings: time 2.0 day
Mus musculus [14] = experiment: Anti-osteoporosis activity in ovariectomized C57BL/6J mouse model assessed as increase in bone surface density in femur at 20 microg/kg, sc administered 3 times a week for 8 weeks by micro-CT analysis; format: functional, organism-based; settings: dose 20.0 µg/kg
[15] = Stability in human serum assessed as compound remaining at 1 mg/ml measured after 12 hrs by HPLC analysis; format: ADME, cell-free; settings: read-out: Stability

Structure (SMILES)	metabolised at 12 h, 1 mg/ml [2] [%]	remaining at 12 h, 1 mg/ml [15] [%]	fold change (FC) [1]	Activity [3]	fold change (FC) [4]	fold change (FC) [5]	Activity (Pre-Osteoblast [6])	Activity (Mus musculus [7])	Activity (Pre-Osteoblast [8])	Activity (Pre-Osteoblast [9])	Activity (Pre-Osteoblast [10])	Activity (Mus musculus [11])	Activity (Pre-Osteoblast [12])	Activity (Pre-Osteoblast [13])	Activity (Mus musculus [14])
CC[C@H](C)[C@H](NC(=O)[C@H](CCC(=O)O)NC(=O)[C@H](CO)NC(=O)[C@@H](NC(=O)[C@H](CO)NC(C)=O)C(C)C)C(=O)N[C@@H](CCC(N)=O)C(=O)N[C@@H](CC(C)C)C(=O)N[C@@H](CCSC)C(=O)N[C@@H](Cc1cnc[nH]1)C(=O)N[C@@H](CC(N)=O)C(=O)N[C@@H](CC(C)C)C(=O)NCC(=O)N[C@@H](CCCCN)C(=O)N[C@@H](Cc1cnc[nH]1)C(=O)N[C@@H](CC(C)C)C(=O)N[C@@H](CC(N)=O)C(=O)N[C@@H](CO)C(=O)N[C@@H](CCSC)C(=O)N[C@@H](CCC(=O)O)C(=O)N[C@@H](CCCNC(=N)N[C@@H]1O[C@H](CO)[C@H](O)[C@H](O)[C@H]1O)C(=O)N[C@H](C(=O)N[C@@H](CCC(=O)O)C(=O)N[C@@H](Cc1c[nH]c2ccccc12)C(=O)N[C@@H](CC(C)C)C(=O)N[C@@H](CCCNC(=N)N[C@@H]1O[C@H](CO)[C@H](O)[C@H](O)[C@H]1O)C(=O)N[C@@H](CCCCN)C(=O)N[C@@H](CCCCN)C(=O)N[C@@H](CC(C)C)C(=O)N[C@@H](CCC(N)=O)C(=O)N[C@@H](CC(=O)O)C(=O)N[C@H](C(=O)N[C@@H](Cc1cnc[nH]1)C(=O)N[C@@H](CC(N)=O)C(=O)N[C@@H](Cc1ccccc1)C(N)=O)C(C)C)C(C)C (Ac-SVSEIQLMHNLGKHLNSME[X4]VEWL[X4]KKLQDVHNF-NH2)	–	–	–	Non-Toxic	–	–	–	–	–	–	–	–	–	–	–
CC[C@H](C)[C@H](NC(=O)[C@H](CCC(=O)O)NC(=O)[C@H](CO)NC(=O)[C@@H](NC(=O)[C@H](CO)NC(C)=O)C(C)C)C(=O)N[C@@H](CCC(N)=O)C(=O)N[C@@H](CC(C)C)C(=O)N[C@@H](CCSC)C(=O)N[C@@H](Cc1cnc[nH]1)C(=O)N[C@@H](CC(N)=O)C(=O)N[C@@H](CC(C)C)C(=O)NCC(=O)N[C@@H](CCCCN)C(=O)N[C@@H](Cc1cnc[nH]1)C(=O)N[C@@H](CC(C)C)C(=O)N[C@@H](CC(N)=O)C(=O)N[C@@H](CO)C(=O)N[C@@H](CCSC)C(=O)N[C@@H](CCC(=O)O)C(=O)N[C@@H](CCCNC(=N)N[C@@H]1O[C@@H](C)[C@H](O)[C@@H](O)[C@H]1O)C(=O)N[C@H](C(=O)N[C@@H](CCC(=O)O)C(=O)N[C@@H](Cc1c[nH]c2ccccc12)C(=O)N[C@@H](CC(C)C)C(=O)N[C@@H](CCCNC(=N)N[C@@H]1O[C@@H](C)[C@H](O)[C@@H](O)[C@H]1O)C(=O)N[C@@H](CCCCN)C(=O)N[C@@H](CCCCN)C(=O)N[C@@H](CC(C)C)C(=O)N[C@@H](CCC(N)=O)C(=O)N[C@@H](CC(=O)O)C(=O)N[C@H](C(=O)N[C@@H](Cc1cnc[nH]1)C(=O)N[C@@H](CC(N)=O)C(=O)N[C@@H](Cc1ccccc1)C(N)=O)C(C)C)C(C)C (Ac-SVSEIQLMHNLGKHLNSME[X6]VEWL[X6]KKLQDVHNF-NH2)	–	–	–	Non-Toxic	–	–	–	–	–	–	–	–	–	–	–
CC[C@H](C)[C@H](NC(=O)[C@H](CCC(=O)O)NC(=O)[C@H](CO)NC(=O)[C@@H](NC(=O)[C@H](CO)NC(C)=O)C(C)C)C(=O)N[C@@H](CCC(N)=O)C(=O)N[C@@H](CC(C)C)C(=O)N[C@@H](CCSC)C(=O)N[C@@H](Cc1cnc[nH]1)C(=O)N[C@@H](CC(N)=O)C(=O)N[C@@H](CC(C)C)C(=O)NCC(=O)N[C@@H](CCCCN)C(=O)N[C@@H](Cc1cnc[nH]1)C(=O)N[C@@H](CC(C)C)C(=O)N[C@@H](CC(N)=O)C(=O)N[C@@H](CO)C(=O)N[C@@H](CCSC)C(=O)N[C@@H](CCC(=O)O)C(=O)N[C@@H](CCCNC(=N)N[C@@H]1O[C@H](CO)[C@@H](O[C@H]2O[C@H](CO)[C@@H](O)[C@H](O)[C@H]2O)[C@H](O)[C@H]1O)C(=O)N[C@H](C(=O)N[C@@H](CCC(=O)O)C(=O)N[C@@H](Cc1c[nH]c2ccccc12)C(=O)N[C@@H](CC(C)C)C(=O)N[C@@H](CCCNC(=N)N)C(=O)N[C@@H](CCCCN)C(=O)N[C@@H](CCCCN)C(=O)N[C@@H](CC(C)C)C(=O)N[C@@H](CCC(N)=O)C(=O)N[C@@H](CC(=O)O)C(=O)N[C@H](C(=O)N[C@@H](Cc1cnc[nH]1)C(=O)N[C@@H](CC(N)=O)C(=O)N[C@@H](Cc1ccccc1)C(N)=O)C(C)C)C(C)C	–	–	–	Non-Toxic	–	–	–	–	–	–	–	–	–	–	–

Second part, led by results:

metabolised at 12 h, 1 mg/ml [2] [%]	remaining at 12 h, 1 mg/ml [15] [%]	Structure (SMILES)	fold change (FC) [1]	Activity [3]	fold change (FC) [4]	fold change (FC) [5]	Activity (Pre-Osteoblast [6])	Activity (Mus musculus [7])	Activity (Pre-Osteoblast [8])	Activity (Pre-Osteoblast [9])	Activity (Pre-Osteoblast [10])	Activity (Mus musculus [11])	Activity (Pre-Osteoblast [12])	Activity (Pre-Osteoblast [13])	Activity (Mus musculus [14])
> 50	–	CC[C@H](C)[C@H](NC(=O)[C@H](CCC(=O)O)NC(=O)[C@H](CO)NC(=O)[C@@H](NC(=O)[C@H](CO)NC(C)=O)C(C)C)C(=O)N[C@@H](CCC(N)=O)C(=O)N[C@@H](CC(C)C)C(=O)N[C@@H](CCSC)C(=O)N[C@@H](Cc1cnc[nH]1)C(=O)N[C@@H](CC(N)=O)C(=O)N[C@@H](CC(C)C)C(=O)NCC(=O)N[C@@H](CCCCN)C(=O)N[C@@H](Cc1cnc[nH]1)C(=O)N[C@@H](CC(C)C)C(=O)N[C@@H](CC(N)=O)C(=O)N[C@@H](CO)C(=O)N[C@@H](CCSC)C(=O)N[C@@H](CCC(=O)O)C(=O)N[C@@H](CCCNC(=N)N)C(=O)N[C@H](C(=O)N[C@@H](CCC(=O)O)C(=O)N[C@@H](Cc1c[nH]c2ccccc12)C(=O)N[C@@H](CC(C)C)C(=O)N[C@@H](CCCNC(=N)N)C(=O)N[C@@H](CCCCN)C(=O)N[C@@H](CCCCN)C(=O)N[C@@H](CC(C)C)C(=O)N[C@@H](CCC(N)=O)C(=O)N[C@@H](CC(=O)O)C(=O)N[C@H](C(=O)N[C@@H](Cc1cnc[nH]1)C(=O)N[C@@H](CC(N)=O)C(=O)N[C@@H](Cc1ccccc1)C(N)=O)C(C)C)C(C)C	1.04	Non-Toxic	1.05	1.23	–	–	–	–	–	–	–	–	–
–	> 75	CC[C@H](C)[C@H](NC(=O)[C@H](CCC(=O)O)NC(=O)[C@H](CO)NC(=O)[C@@H](NC(=O)[C@H](CO)NC(C)=O)C(C)C)C(=O)N[C@@H](CCC(N)=O)C(=O)N[C@@H](CC(C)C)C(=O)N[C@@H](CCSC)C(=O)N[C@@H](Cc1cnc[nH]1)C(=O)N[C@@H](CC(N)=O)C(=O)N[C@@H](CC(C)C)C(=O)NCC(=O)N[C@@H](CCCCN)C(=O)N[C@@H](Cc1cnc[nH]1)C(=O)N[C@@H](CC(C)C)C(=O)N[C@@H](CC(N)=O)C(=O)N[C@@H](CO)C(=O)N[C@@H](CCSC)C(=O)N[C@@H](CCC(=O)O)C(=O)N[C@@H](CCCNC(=N)N)C(=O)N[C@H](C(=O)N[C@@H](CCC(=O)O)C(=O)N[C@@H](Cc1c[nH]c2ccccc12)C(=O)N[C@@H](CC(C)C)C(=O)N[C@@H](CCCNC(=N)N[C@@H]1O[C@H](CO)[C@@H](O[C@H]2O[C@H](CO)[C@@H](O)[C@H](O)[C@H]2O)[C@H](O)[C@H]1O)C(=O)N[C@@H](CCCCN)C(=O)N[C@@H](CCCCN)C(=O)N[C@@H](CC(C)C)C(=O)N[C@@H](CCC(N)=O)C(=O)N[C@@H](CC(=O)O)C(=O)N[C@H](C(=O)N[C@@H](Cc1cnc[nH]1)C(=O)N[C@@H](CC(N)=O)C(=O)N[C@@H](Cc1ccccc1)C(N)=O)C(C)C)C(C)C	1.16	Non-Toxic	1.34	1.32	Active	Active	Active	Active	Active	Active	Active	Active	Active
–	> 75	CC[C@H](C)[C@H](NC(=O)[C@H](CCC(=O)O)NC(=O)[C@H](CO)NC(=O)[C@@H](NC(=O)[C@H](CO)NC(C)=O)C(C)C)C(=O)N[C@@H](CCC(N)=O)C(=O)N[C@@H](CC(C)C)C(=O)N[C@@H](CCSC)C(=O)N[C@@H](Cc1cnc[nH]1)C(=O)N[C@@H](CC(N)=O)C(=O)N[C@@H](CC(C)C)C(=O)NCC(=O)N[C@@H](CCCCN)C(=O)N[C@@H](Cc1cnc[nH]1)C(=O)N[C@@H](CC(C)C)C(=O)N[C@@H](CC(N)=O)C(=O)N[C@@H](CO)C(=O)N[C@@H](CCSC)C(=O)N[C@@H](CCC(=O)O)C(=O)N[C@@H](CCCNC(=N)N[C@@H]1OC[C@@H](O)[C@H](O)[C@H]1O)C(=O)N[C@H](C(=O)N[C@@H](CCC(=O)O)C(=O)N[C@@H](Cc1c[nH]c2ccccc12)C(=O)N[C@@H](CC(C)C)C(=O)N[C@@H](CCCNC(=N)N)C(=O)N[C@@H](CCCCN)C(=O)N[C@@H](CCCCN)C(=O)N[C@@H](CC(C)C)C(=O)N[C@@H](CCC(N)=O)C(=O)N[C@@H](CC(=O)O)C(=O)N[C@H](C(=O)N[C@@H](Cc1cnc[nH]1)C(=O)N[C@@H](CC(N)=O)C(=O)N[C@@H](Cc1ccccc1)C(N)=O)C(C)C)C(C)C	1.04	Non-Toxic	1.28	1.29	Active	Active	–	–	–	Active	Active	Active	Active
